From patent US6528677B1, “Selective retinoid agonists” (Hoffmann-La Roche Inc., priority 1999, dated 2003) come the findings set out here.

Series [1] concerns elastase-induced emphysema in rats. The experiment in a line: Repair of alveoli in elastase-induced emphysema (rat model). It counts as in vivo, male Sprague Dawley rats. The settings on record: starting 21 days post elastase injury, morphometric analysis of lung sections. As for the experimental part: Effects of RAR Selective Retinoids on Repair of Alveoli in Elastase-induced Emphysema
RAR selective agonists were evaluated for its effects on alveolar repair in the rat model of elastase-induced emphysema in rats (D. Massaro et al. Nature Medicine (1997, 3, 675). Animals were divided into treatment groups of approximately eight. Lung inflammation and alveolar damage was induced in male Sprague Dawley rats by a single installation of pancreatic elastase(porcine derived, Calbiochem) 2 U/gram body mass. Three weeks post injury all-trans retinoic acid or RAR agonist was dissolved in dimethylsulfoxide (20 mg/ml) and stored at −20 C. Fresh working stocks were prepared fresh daily by dilution in PBS to a final concentration of 2 mg/ml. Animals were dosed once daily with the retinoid by intraperitoneal injection or orally, starting 21 days post injury. Control groups were challenged with elastase and 21 days later treated with Vehicle (DMSO/PBS) for 14 days. Animals were sacrificed 24 hours after the last dose of by exsanguination under deep anesthesia.
The lungs were inflated with 10% neutral buffered formalin by intratracheal instillation at a constant rate (1 ml/gram body mass/min). The lung was excised and immersed in fixative for 24 hours prior to processing. Standard methods were used to prepare 5 um paraffin sections. Sections were stained with Hematoxylin and Eosin (H%E). Computerized Morphometric analysis was performed to determine the average alveolar size and alveolar number (Table 1).

Take `CC1(C)CCC(C)(C)C2=C1CC(C)(C(=O)Oc1ccc(C(=O)O)cc1)C2` [B, 2,4,4,7,7-pentamethyl-2,3,4,5,6,7-hexahydro-1H-indene-2-carboxylic acid 4-carboxy-phenyl ester]: the melting point (usually the temperature, or range, at which the solid turns liquid) was 205 to 206 °C. Still for that read-out and setting: the result for `CCC1(C(=O)Oc2ccc(C(=O)O)cc2)CC2=C(C1)C(C)(C)CCC2(C)C` [C, 2-ethyl-4,4,7,7-tetramethyl-2,3,4,5,6,7-hexahydro-1H-indene-2-carboxylic acid 4-carboxy-phenyl ester] reads 175 to 176 °C.

The compound `CC1(C)CCC(C)(C)C2=C1CC(Cc1ccccc1)(C(=O)Oc1ccc(C(=O)O)cc1)C2` [E, 2-benzyl-4,4,7,7-tetramethyl-2,3,4,5,6,7-hexahydro-1H-indene-2-carboxylic acid 4-carboxy-phenyl ester] yielded a melting point of 183 to 184 °C. The compound `CCCC1(C(=O)Oc2ccc(C(=O)O)cc2)CC2=C(C1)C(C)(C)CCC2(C)C` [Example 3.5, 4,4,7,7-Tetramethyl-2-propyl-2,3,4,5,6,7-hexahydro-1H-indene-2-carboxylic acid 4-carboxy-phenyl ester] had a melting point of 156 to 157 °C. In turn, `CCCCC1(C(=O)Oc2ccc(C(=O)O)cc2)CC2=C(C1)C(C)(C)CCC2(C)C` [Example 3.6, 2-Butyl-4,4,7,7-tetramethyl-2,3,4,5,6,7-hexahydro-1H-indene-2-carboxylic acid 4-carboxy-phenyl ester] registered a melting point of 172 to 173 °C. In the case of `CC(C)CC1(C(=O)Oc2ccc(C(=O)O)cc2)CC2=C(C1)C(C)(C)CCC2(C)C` [Example 3.7, 2-Isobutyl-4,4,7,7-tetramethyl-2,3,4,5,6,7-hexahydro-1H-indene-2-carboxylic acid 4-carboxy-phenyl ester], the melting point was 194 to 196 °C. The same measure, in the same setting: the result for `CCCCCCC1(C(=O)Oc2ccc(C(=O)O)cc2)CC2=C(C1)C(C)(C)CCC2(C)C` [Example 3.8, 2-Hexyl-4,4,7,7-tetramethyl-2,3,4,5,6,7-hexahydro-1H-indene-2-carboxylic acid 4-carboxy-phenyl ester] reads 149 to 150 °C.

Take `CC1(C)CCC(C)(C)C2=C1CC(CCc1ccccc1)(C(=O)Oc1ccc(C(=O)O)cc1)C2` [Example 3.9, 4,4,7,7-Tetramethyl-2-phenethyl-2,3,4,5,6,7-hexahydro-1H-indene-2-carboxylic acid 4-carboxy-phenyl ester]: the melting point was 182 to 183 °C. As for `CCCCCC1(C(=O)Oc2ccc(C(=O)O)cc2)CC2=C(C1)C(C)(C)CCC2(C)C` [compound D, 4,4,7,7-tetramethyl-2-pentyl-2,3,4,5,6,7-hexahydro-1H-indene-2-carboxylic acid 4-carboxy-phenyl ester], the melting point was in the range of 156 to 158 °C. The “% repair area” value in series [1] (0.3 mg/kg p.o. once daily) is on record as 11.1%. The “% repair area” value in series [1] (0.5 mg/kg i.p. once daily) turned out to be 54%. The “% repair area” value in series [1] (1 mg/kg p.o. once daily) stood at 44%. In addition, the “% repair area” value in series [1] (3 mg/kg p.o. once daily) came to 48.6%.
